Reference: ChEMBL document CHEMBL4619760, “Anti-inflammatory Efficacy of Combined Natural Alkaloid Berberine and S1PR Modulator Fingolimod at Low Doses in Ulcerative Colitis Preclinical Models” (J Nat Prod, 2020)
Calls of active or inactive are those of the source.

Columns and labels:
[1] = test system: Mus musculus; experiment: Anti-colitis activity against DSS-induced C57BL/6 mouse model of chronic relapsing colitis assessed as reduction in DSS-induced multiple erosive lesions in colon at 0.15 mg/kg, po administered once daily for 30 days starting from day 13 post DSS-challenge cotreated with 20 mg/kg berberine by hematoxylin and eosin staining based light microscopic analysis; assay type: functional, organism-based
[2] = (§1) Toxicity in DSS-induced C57BL/6 mouse model of chronic relapsing colitis assessed as induction of abnormalities in kidney at 0.3 mg/kg, po administered once daily for 30 days starting from day 13 post DSS-challenge by hematoxylin and eosin staining based light microscopic analysis; assay type: organism-based; details: in vivo, 720 h
[3] = test system: Mus musculus; experiment: Effect on total STAT3 expression in DSS-induced C57BL/6 mouse model of subchronic relapsing colitis at 0.15 mg/kg, po administered once daily for 14 days starting from day 5 post DSS-challenge cotreated with 20 mg/kg berberine by Western blot analysis; assay type: ADME, organism-based; details: in vivo, 336 h
[4] = test system: Mus musculus; experiment: Anti-colitis activity against DSS-induced C57BL/6 mouse model of chronic relapsing colitis assessed as reduction in disease activity index at 0.15 mg/kg, po administered once daily for 30 days starting from day 13 post DSS-challenge cotreated with 20 mg/kg berberine and measured on day 24; assay type: functional, organism-based
[5] = test system: Mus musculus; experiment: Anti-colitis activity against DSS-induced C57BL/6 mouse model of chronic relapsing colitis assessed as reduction in DSS-induced spleen swelling at 0.3 mg/kg, po administered once daily for 30 days starting from day 13 post DSS-challenge; assay type: functional, organism-based
[6] = test system: Mus musculus; experiment: Anti-colitis activity against DSS-induced C57BL/6 mouse model of subchronic relapsing colitis assessed as reversal of DSS-induced colon shortening at 0.15 mg/kg, po administered once daily for 30 days starting from day 13 post DSS-challenge cotreated with 20 mg/kg berberine; assay type: functional, organism-based
[7] = test system: Mus musculus; experiment: Anti-colitis activity against DSS-induced C57BL/6 mouse model of chronic relapsing colitis assessed as reduction in DSS-induced multiple erosive lesions in colon at 0.3 mg/kg, po administered once daily for 30 days starting from day 13 post DSS-challenge; assay type: functional, organism-based
[8] = test system: Mus musculus; experiment: Anti-colitis activity against DSS-induced C57BL/6 mouse model of chronic relapsing colitis assessed as reduction in stool bleeding at 0.3 mg/kg, po administered once daily for 30 days starting from day 13 post DSS-challenge measured on day 43; assay type: functional, organism-based
[9] = test system: Mus musculus; experiment: Effect on total S1PR1 expression in DSS-induced C57BL/6 mouse model of subchronic relapsing colitis at 0.15 mg/kg, po administered once daily for 14 days starting from day 5 post DSS-challenge cotreated with 20 mg/kg berberine by Western blot analysis; assay type: ADME, organism-based; details: in vivo, 336 h
[10] = test system: Mus musculus; experiment: (§2) Anti-colitis activity against DSS-induced C57BL/6 mouse model of subchronic relapsing colitis assessed as reduction in spleen swelling at 0.15 mg/kg, po administered once daily for 14 days starting from day 5 post DSS-challenge cotreated with 20 mg/kg berberine and measured after day 12 to day 18; assay type: functional, organism-based
[11] = test system: Mus musculus; experiment: Anti-colitis activity against DSS-induced C57BL/6 mouse model of subchronic relapsing colitis assessed as reduction in disease activity index at 0.15 mg/kg, po administered once daily for 14 days starting from day 5 post DSS-challenge cotreated with 20 mg/kg berberine measured after day 12 to day 18; assay type: functional, organism-based
[12] = Toxicity in DSS-induced C57BL/6 mouse model of chronic relapsing colitis assessed as induction of abnormalities in lung at 0.3 mg/kg, po administered once daily for 30 days starting from day 13 post DSS-challenge by hematoxylin and eosin staining based light microscopic analysis; assay type: organism-based; details: in vivo, 720 h
[13] = test system: Mus musculus; experiment: Anti-colitis activity against DSS-induced C57BL/6 mouse model of chronic relapsing colitis assessed as reduction in DSS-induced spleen swelling at 0.15 mg/kg, po administered once daily for 30 days starting from day 13 post DSS-challenge cotreated with 20 mg/kg berberine; assay type: functional, organism-based
[14] = as §1, with “0.15” for “0.3”, “DSS-challenge cotreated with 20 mg/kg berberine” for “DSS-challenge”; assay type: organism-based; details: in vivo, 720 h
[15] = test system: Mus musculus; experiment: as §2, with “DSS-induced colon shortening” for “spleen swelling”; assay type: functional, organism-based
[16] = test system: Mus musculus; experiment: Antiinflammatory activity against DSS-induced C57BL/6 mouse model of subchronic relapsing colitis assessed as reduction in IL6 mRNA level at 0.15 mg/kg, po administered once daily for 14 days starting from day 5 post DSS-challenge cotreated with 20 mg/kg berberine by RT-qPCR analysis; assay type: functional, organism-based

Measured: Activity

CCCCCCCCc1ccc(CCC(N)(CO)CO)cc1.Cl [FINGOLIMOD HYDROCHLORIDE]
inactive: [10]
Non-Toxic: [2] | [3] | [9] | [12] | [14]
active: all other assays above
